Results from ChEMBL document CHEMBL4385653, “Design, synthesis, biological evaluation of benzoyl amide derivatives containing nitrogen heterocyclic ring as potential VEGFR-2 inhibitors” (Bioorg Med Chem, 2019).

Legend:
MCF7 [1] = test: Induction of apoptosis in human MCF7 cells assessed as viable cells level at 4 uM incubated for 24 hrs by Annexin V-FITC/PI double staining based flow cytometry analysis (reference value: 82%); format: functional
MCF7 [2] = test: Induction of apoptosis in human MCF7 cells assessed as early apoptotic cells level at 4 uM incubated for 24 hrs by Annexin V-FITC/PI double staining based flow cytometry analysis (reference value: 6.37%); format: functional
MCF7 [3] = test: Induction of apoptosis in human MCF7 cells assessed as viable cells level at 4 uM incubated for 36 hrs by Annexin V-FITC/PI double staining based flow cytometry analysis (reference value: 89%); format: functional
MCF7 [4] = test: Induction of apoptosis in human MCF7 cells assessed as early apoptotic cells level at 4 uM incubated for 12 hrs by Annexin V-FITC/PI double staining based flow cytometry analysis (reference value: 1.06%); format: functional
MCF7 [5] = test: Induction of apoptosis in human MCF7 cells assessed as viable cells level at 8 uM incubated for 24 hrs by Annexin V-FITC/PI double staining based flow cytometry analysis (reference value: 82%); format: functional
MCF7 [6] = test: Induction of apoptosis in human MCF7 cells assessed as late apoptotic cells level at 4 uM incubated for 12 hrs by Annexin V-FITC/PI double staining based flow cytometry analysis (reference value: 3.1%); format: functional
MCF7 [7] = test: Induction of apoptosis in human MCF7 cells assessed as early apoptotic cells level at 8 uM incubated for 24 hrs by Annexin V-FITC/PI double staining based flow cytometry analysis (reference value: 6.37%); format: functional
MCF7 [8] = test: Induction of apoptosis in human MCF7 cells assessed as late apoptotic cells level at 2 uM incubated for 24 hrs by Annexin V-FITC/PI double staining based flow cytometry analysis (reference value: 10.1%); format: functional
MCF7 [9] = test: Induction of apoptosis in human MCF7 cells assessed as early apoptotic cells level at 2 uM incubated for 24 hrs by Annexin V-FITC/PI double staining based flow cytometry analysis (reference value: 6.37%); format: functional
MCF7 [10] = test: Induction of apoptosis in human MCF7 cells assessed as early apoptotic cells level at 4 uM incubated for 36 hrs by Annexin V-FITC/PI double staining based flow cytometry analysis (reference value: 1.06%); format: functional
MCF7 [11] = test: Induction of apoptosis in human MCF7 cells assessed as late necrotic cells level at 8 uM incubated for 24 hrs by Annexin V-FITC/PI double staining based flow cytometry analysis (reference value: 1.49%); format: functional
MCF7 [12] = test: Induction of apoptosis in human MCF7 cells assessed as late necrotic cells level at 4 uM incubated for 24 hrs by Annexin V-FITC/PI double staining based flow cytometry analysis (reference value: 6.88%); format: functional
MCF7 [13] = test: Induction of apoptosis in human MCF7 cells assessed as viable cells level at 4 uM incubated for 12 hrs by Annexin V-FITC/PI double staining based flow cytometry analysis (reference value: 89%); format: functional
MCF7 [14] = test: Induction of apoptosis in human MCF7 cells assessed as late necrotic cells level at 4 uM incubated for 12 hrs by Annexin V-FITC/PI double staining based flow cytometry analysis (reference value: 6.88%); format: functional
MCF7 [15] = test: Induction of apoptosis in human MCF7 cells assessed as late apoptotic cells level at 4 uM incubated for 24 hrs by Annexin V-FITC/PI double staining based flow cytometry analysis (reference value: 3.1%); format: functional
MCF7 [16] = test: Induction of apoptosis in human MCF7 cells assessed as early apoptotic cells level at 4 uM incubated for 24 hrs by Annexin V-FITC/PI double staining based flow cytometry analysis (reference value: 1.06%); format: functional
MCF7 [17] = test: Induction of apoptosis in human MCF7 cells assessed as late necrotic cells level at 4 uM incubated for 36 hrs by Annexin V-FITC/PI double staining based flow cytometry analysis (reference value: 6.88%); format: functional
MCF7 [18] = test: Induction of apoptosis in human MCF7 cells assessed as viable cells level at 2 uM incubated for 24 hrs by Annexin V-FITC/PI double staining based flow cytometry analysis (reference value: 82%); format: functional
MCF7 [19] = test: Induction of apoptosis in human MCF7 cells assessed as viable cells level at 4 uM incubated for 24 hrs by Annexin V-FITC/PI double staining based flow cytometry analysis (reference value: 89%); format: functional
MCF7 [20] = test: Induction of apoptosis in human MCF7 cells assessed as late necrotic cells level at 2 uM incubated for 24 hrs by Annexin V-FITC/PI double staining based flow cytometry analysis (reference value: 1.49%); format: functional
MCF7 [21] = test: Induction of apoptosis in human MCF7 cells assessed as late apoptotic cells level at 4 uM incubated for 36 hrs by Annexin V-FITC/PI double staining based flow cytometry analysis (reference value: 3.1%); format: functional
MCF7 [22] = test: Induction of apoptosis in human MCF7 cells assessed as late necrotic cells level at 4 uM incubated for 24 hrs by Annexin V-FITC/PI double staining based flow cytometry analysis (reference value: 1.49%); format: functional
MCF7 [23] = test: Induction of apoptosis in human MCF7 cells assessed as late apoptotic cells level at 8 uM incubated for 24 hrs by Annexin V-FITC/PI double staining based flow cytometry analysis (reference value: 10.1%); format: functional
MCF7 [24] = test: Induction of apoptosis in human MCF7 cells assessed as late apoptotic cells level at 4 uM incubated for 24 hrs by Annexin V-FITC/PI double staining based flow cytometry analysis (reference value: 10.1%); format: functional
HepG2 = test: Antiproliferative activity against human HepG2 cells assessed as inhibition of cell proliferation incubated for 48 hrs by MTT assay; format: functional, cell-based; conditions: HepG2, 48 h
HeLa = test: Antiproliferative activity against human HeLa cells assessed as inhibition of cell proliferation incubated for 48 hrs by MTT assay; format: functional, cell-based
MCF7 [25] = test: Antiproliferative activity against human MCF7 cells assessed as inhibition of cell proliferation incubated for 48 hrs by MTT assay; format: functional, cell-based; conditions: MCF7, 48 h
[26] = Cytotoxicity in HEK293T cells assessed as reduction in cell viability incubated for 48 hrs by MTT assay; format: cell-based, HEK-293T; conditions: human
A549 = test: Antiproliferative activity against human A549 cells assessed as inhibition of cell proliferation incubated for 48 hrs by MTT assay; format: functional, cell-based; conditions: A549, 48 h
[27] = target: Epidermal growth factor receptor (Homo sapiens, UniProt P00533); test: Inhibition of EGFR (unknown origin) incubated for 30 mins by enzyme immunoassay
Sequence of Epidermal growth factor receptor (P00533 whole entry): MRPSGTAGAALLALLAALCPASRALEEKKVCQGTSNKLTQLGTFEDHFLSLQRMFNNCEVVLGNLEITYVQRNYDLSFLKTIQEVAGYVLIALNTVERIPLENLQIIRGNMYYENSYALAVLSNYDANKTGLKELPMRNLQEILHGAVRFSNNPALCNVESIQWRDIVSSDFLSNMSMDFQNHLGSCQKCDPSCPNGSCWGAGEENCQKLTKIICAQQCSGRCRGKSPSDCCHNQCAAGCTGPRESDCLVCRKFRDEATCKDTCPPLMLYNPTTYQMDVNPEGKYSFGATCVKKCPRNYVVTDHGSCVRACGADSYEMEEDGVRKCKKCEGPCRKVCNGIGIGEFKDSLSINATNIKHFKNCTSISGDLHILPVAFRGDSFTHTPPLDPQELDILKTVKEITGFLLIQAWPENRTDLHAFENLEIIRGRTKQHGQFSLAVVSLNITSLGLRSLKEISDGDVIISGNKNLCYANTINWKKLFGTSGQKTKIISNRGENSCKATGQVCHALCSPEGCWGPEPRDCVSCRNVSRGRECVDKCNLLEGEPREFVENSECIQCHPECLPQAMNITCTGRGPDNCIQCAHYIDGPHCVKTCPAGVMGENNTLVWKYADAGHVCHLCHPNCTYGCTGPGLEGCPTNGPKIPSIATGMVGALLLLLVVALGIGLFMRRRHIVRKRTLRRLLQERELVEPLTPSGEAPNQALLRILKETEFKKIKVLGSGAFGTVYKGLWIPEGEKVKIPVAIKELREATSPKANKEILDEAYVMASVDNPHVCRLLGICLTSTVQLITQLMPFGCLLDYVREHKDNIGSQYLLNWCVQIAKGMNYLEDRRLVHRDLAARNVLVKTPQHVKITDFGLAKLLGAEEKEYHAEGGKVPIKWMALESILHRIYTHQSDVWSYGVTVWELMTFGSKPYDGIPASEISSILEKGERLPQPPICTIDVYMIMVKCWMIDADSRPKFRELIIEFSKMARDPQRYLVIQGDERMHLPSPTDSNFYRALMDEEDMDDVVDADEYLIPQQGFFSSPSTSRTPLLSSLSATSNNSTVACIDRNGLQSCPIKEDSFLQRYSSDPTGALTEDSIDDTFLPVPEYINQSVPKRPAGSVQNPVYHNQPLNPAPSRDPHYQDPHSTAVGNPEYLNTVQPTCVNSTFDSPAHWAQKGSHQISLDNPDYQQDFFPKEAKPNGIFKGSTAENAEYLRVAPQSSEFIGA

[28] = Inhibition of PDGFR (unknown origin) incubated for 30 mins by enzyme immunoassay; parameters: species or system Homo sapiens
[29] = target: Vascular endothelial growth factor receptor 2 (Homo sapiens, UniProt P35968); test: Inhibition of VEGFR2 (unknown origin) incubated for 30 mins by enzyme immunoassay
Sequence of Vascular endothelial growth factor receptor 2 (P35968 whole entry): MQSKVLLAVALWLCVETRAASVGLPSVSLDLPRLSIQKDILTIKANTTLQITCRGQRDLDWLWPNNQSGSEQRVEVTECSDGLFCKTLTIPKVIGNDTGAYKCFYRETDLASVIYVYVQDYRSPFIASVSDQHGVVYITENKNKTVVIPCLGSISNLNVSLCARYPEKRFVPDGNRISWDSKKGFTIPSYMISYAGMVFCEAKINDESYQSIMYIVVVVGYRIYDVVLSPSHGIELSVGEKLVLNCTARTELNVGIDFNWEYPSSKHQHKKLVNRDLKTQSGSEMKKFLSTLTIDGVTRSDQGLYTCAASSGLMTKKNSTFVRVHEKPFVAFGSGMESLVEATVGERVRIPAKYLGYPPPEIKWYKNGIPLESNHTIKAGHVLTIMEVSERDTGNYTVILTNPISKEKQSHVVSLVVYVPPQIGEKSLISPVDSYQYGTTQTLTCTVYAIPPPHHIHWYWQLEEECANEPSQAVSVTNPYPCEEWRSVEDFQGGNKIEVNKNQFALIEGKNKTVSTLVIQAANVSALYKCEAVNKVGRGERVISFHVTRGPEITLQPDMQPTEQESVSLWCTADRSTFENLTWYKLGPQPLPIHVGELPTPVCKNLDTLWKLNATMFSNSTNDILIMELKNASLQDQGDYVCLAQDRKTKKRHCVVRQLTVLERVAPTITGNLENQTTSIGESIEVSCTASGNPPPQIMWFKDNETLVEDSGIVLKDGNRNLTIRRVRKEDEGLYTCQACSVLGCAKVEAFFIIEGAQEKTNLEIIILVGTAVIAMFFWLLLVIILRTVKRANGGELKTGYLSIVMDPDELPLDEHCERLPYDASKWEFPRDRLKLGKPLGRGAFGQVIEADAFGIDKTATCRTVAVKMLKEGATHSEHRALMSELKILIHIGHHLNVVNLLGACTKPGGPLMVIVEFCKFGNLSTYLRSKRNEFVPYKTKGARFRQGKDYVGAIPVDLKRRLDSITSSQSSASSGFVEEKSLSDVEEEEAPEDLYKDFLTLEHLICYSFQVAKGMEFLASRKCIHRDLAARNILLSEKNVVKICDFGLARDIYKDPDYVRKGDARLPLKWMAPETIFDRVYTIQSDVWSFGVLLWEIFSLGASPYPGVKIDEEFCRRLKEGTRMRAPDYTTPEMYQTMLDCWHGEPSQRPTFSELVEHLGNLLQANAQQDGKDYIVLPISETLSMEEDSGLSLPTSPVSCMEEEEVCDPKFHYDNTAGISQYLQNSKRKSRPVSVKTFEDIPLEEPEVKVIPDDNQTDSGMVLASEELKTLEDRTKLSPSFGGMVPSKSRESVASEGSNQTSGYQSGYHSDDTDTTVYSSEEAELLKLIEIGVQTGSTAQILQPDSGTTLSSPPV

[30] = target: Fibroblast growth factor receptor 1 (Homo sapiens, UniProt P11362); test: Inhibition of bFGFR (unknown origin) incubated for 30 mins by enzyme immunoassay
Sequence of Fibroblast growth factor receptor 1 (P11362 whole entry): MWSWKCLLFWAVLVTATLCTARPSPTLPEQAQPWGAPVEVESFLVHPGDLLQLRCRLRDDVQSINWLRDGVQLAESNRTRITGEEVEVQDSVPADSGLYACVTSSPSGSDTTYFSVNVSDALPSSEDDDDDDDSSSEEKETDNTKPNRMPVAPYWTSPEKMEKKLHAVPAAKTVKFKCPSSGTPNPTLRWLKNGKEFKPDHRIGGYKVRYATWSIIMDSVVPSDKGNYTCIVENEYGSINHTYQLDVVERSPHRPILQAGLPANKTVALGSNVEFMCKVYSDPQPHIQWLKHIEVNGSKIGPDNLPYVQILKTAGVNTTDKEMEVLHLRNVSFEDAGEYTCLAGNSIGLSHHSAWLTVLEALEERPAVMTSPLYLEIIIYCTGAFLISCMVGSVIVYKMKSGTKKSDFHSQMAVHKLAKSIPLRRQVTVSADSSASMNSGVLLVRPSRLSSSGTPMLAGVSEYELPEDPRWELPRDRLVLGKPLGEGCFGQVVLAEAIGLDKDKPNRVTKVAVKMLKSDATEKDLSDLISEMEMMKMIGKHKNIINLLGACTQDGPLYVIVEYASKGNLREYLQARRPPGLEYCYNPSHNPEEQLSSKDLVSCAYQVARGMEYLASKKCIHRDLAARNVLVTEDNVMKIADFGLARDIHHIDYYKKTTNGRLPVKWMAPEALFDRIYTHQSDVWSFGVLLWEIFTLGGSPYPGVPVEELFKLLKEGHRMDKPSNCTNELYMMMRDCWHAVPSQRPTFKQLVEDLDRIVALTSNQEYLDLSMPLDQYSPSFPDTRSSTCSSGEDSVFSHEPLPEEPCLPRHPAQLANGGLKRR

Compound: CCCS(=O)(=O)Nc1ccc(F)c(C(=O)c2c[nH]c3ncc(-c4ccc(Cl)cc4)cc23)c1F [VEMURAFENIB]
- Activity (MCF7 [1]): 66.7%
- Activity (MCF7 [2]): 8.13%
- Activity (MCF7 [3]): 50.7%
- Activity (MCF7 [4]): 14.2%
- Activity (MCF7 [5]): 57.2%
- Activity (MCF7 [6]): 13.9%
- Activity (MCF7 [7]): 14.4%
- Activity (MCF7 [8]): 14.9%
- Activity (MCF7 [9]): 8.28%
- Activity (MCF7 [10]): 34.7%
- Activity (MCF7 [11]): 2.02%
- Activity (MCF7 [12]): 1.81%
- Activity (MCF7 [13]): 70.7%
- Activity (MCF7 [14]): 1.24%
- Activity (MCF7 [15]): 16.7%
- Activity (MCF7 [16]): 15.1%
- Activity (MCF7 [17]): 0.853%
- Activity (MCF7 [18]): 74.6%
- Activity (MCF7 [19]): 66.4%
- Activity (MCF7 [20]): 2.29%
- Activity (MCF7 [21]): 13.7%
- Activity (MCF7 [22]): 3.53%
- Activity (MCF7 [23]): 26.3%
- Activity (MCF7 [24]): 21.7%

Compound: Cc1ccc(-n2cc(NC(=O)c3ccc(NS(=O)(=O)c4ccc(Cl)cc4)cc3)cn2)cc1
- IC50 (HepG2): 9.72 µM
- IC50 (HeLa): 8.01 µM
- IC50 (MCF7 [25]): 3.99 µM
- CC50 at 48 h [26]: 138 µM
- IC50 (A549): 22 µM
- IC50 [27]: 12.4 µM
- IC50 [28]: 15.8 µM
- IC50 [29]: 2.88 µM
- IC50 [30]: 16.2 µM

Compound: Cn1cc(NC(=O)c2cccc(NS(=O)(=O)c3ccccc3)c2)cn1
- IC50 (HepG2): 85.3 µM
- IC50 (HeLa): 78.5 µM
- IC50 (MCF7 [25]): 41.2 µM
- IC50 (A549): > 100 µM
- IC50 [27]: 34.3 µM
- IC50 [28]: 41.6 µM
- IC50 [29]: 20.4 µM
- IC50 [30]: 57.1 µM

Compound: COc1cccc(-n2cc(NC(=O)c3cccc(NS(=O)(=O)c4ccccc4)c3)cn2)c1
- IC50 (HepG2): 25 µM
- IC50 (HeLa): 26.2 µM
- IC50 (MCF7 [25]): 16.7 µM
- IC50 (A549): 81.1 µM
- IC50 [27]: 22.9 µM
- IC50 [28]: 27.8 µM
- IC50 [29]: 9.22 µM
- IC50 [30]: 33.5 µM

Compound: O=C(Nc1cnn(-c2ccccc2)c1)c1ccc(NS(=O)(=O)c2ccccc2)cc1
- IC50 (HepG2): 21.5 µM
- IC50 (HeLa): 37.1 µM
- IC50 (MCF7 [25]): 17.1 µM
- IC50 (A549): 87.1 µM
- IC50 [27]: 25.4 µM
- IC50 [28]: 34.6 µM
- IC50 [29]: 10.1 µM
- IC50 [30]: 35.9 µM
